Measurements reported in the kinase profiling compilation of Christmann-Franck et al. (2016).

Key:
Test in all cases: radiometric filter-binding kinase assay
NEK2 (human) = NEK2 (human) (UniProt P51955); settings: ATP 50 µM
MAPKAPK5 (human) = MAPKAPK5 (human) (UniProt Q8IW41); settings: ATP 20 µM
MAP2K1 (human) = MAP2K1 (human) (UniProt Q02750); settings: compound 1.0 µM; ATP 5 µM
IKBKE (human) = IKBKE (human) (UniProt Q14164); settings: ATP 50 µM
[1] = target: PRKACA or PRKACB or PRKACG (human) (UniProt P22694+P22612+P17612); settings: ATP 20 µM
MAPKAPK2 (human) = MAPKAPK2 (human) (UniProt P49137); settings: ATP 20 µM
MAPK9 (human) = MAPK9 (human) (UniProt P45984); settings: compound 1.0 µM; ATP 20 µM
PIM3 (human) = PIM3 (human) (UniProt Q86V86); settings: compound 10.0 µM; ATP 20 µM
AURKB (human) = AURKB (human) (UniProt Q96GD4); settings: ATP 20 µM
Sequence of AURKB (human) (Q96GD4 whole entry, looked up): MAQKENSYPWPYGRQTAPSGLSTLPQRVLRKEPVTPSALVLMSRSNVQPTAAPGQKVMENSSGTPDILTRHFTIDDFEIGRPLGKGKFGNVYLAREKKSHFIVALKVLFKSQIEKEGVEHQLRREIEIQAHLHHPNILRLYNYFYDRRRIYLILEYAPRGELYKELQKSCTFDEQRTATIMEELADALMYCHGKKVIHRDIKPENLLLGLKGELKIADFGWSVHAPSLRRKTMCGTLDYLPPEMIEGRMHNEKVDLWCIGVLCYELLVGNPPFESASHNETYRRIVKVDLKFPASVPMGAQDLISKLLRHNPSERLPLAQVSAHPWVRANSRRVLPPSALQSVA

PLK1 (human) = PLK1 (human) (UniProt P53350); settings: ATP 5 µM
CaMK1 (human) = CaMK1 (human) (UniProt Q14012); settings: ATP 50 µM
Sequence of CaMK1 (human) (Q14012 whole entry, looked up): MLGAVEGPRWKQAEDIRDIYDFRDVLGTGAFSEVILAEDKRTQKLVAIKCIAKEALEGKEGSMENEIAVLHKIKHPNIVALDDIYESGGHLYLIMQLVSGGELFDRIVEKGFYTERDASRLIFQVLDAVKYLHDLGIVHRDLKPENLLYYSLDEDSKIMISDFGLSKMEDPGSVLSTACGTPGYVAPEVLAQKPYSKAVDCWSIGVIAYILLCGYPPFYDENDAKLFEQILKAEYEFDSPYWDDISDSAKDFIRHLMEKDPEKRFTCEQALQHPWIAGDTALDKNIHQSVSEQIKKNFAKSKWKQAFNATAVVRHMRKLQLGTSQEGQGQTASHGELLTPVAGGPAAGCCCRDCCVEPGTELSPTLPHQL

PAK4 (human) = PAK4 (human) (UniProt O96013); settings: ATP 5 µM
Sequence of PAK4 (human) (O96013 whole entry, looked up): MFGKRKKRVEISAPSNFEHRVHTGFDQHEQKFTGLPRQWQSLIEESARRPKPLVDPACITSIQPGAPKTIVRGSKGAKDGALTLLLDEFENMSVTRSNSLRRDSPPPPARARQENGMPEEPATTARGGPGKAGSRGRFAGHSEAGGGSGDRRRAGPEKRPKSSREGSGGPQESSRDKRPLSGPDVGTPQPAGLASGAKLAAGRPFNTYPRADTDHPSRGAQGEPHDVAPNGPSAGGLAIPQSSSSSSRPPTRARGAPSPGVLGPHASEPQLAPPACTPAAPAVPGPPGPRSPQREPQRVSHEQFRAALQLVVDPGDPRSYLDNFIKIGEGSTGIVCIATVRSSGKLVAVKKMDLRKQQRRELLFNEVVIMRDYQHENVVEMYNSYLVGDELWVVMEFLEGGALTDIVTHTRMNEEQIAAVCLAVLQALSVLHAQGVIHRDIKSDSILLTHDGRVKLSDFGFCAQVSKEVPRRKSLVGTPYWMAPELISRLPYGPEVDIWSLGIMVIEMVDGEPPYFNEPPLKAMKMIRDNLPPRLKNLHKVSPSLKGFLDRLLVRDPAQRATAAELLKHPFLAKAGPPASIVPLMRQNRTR

RPS6KA5 KD1 KD2 (human) = RPS6KA5 KD1 KD2 (human) (UniProt O75582); settings: compound 1.0 µM; ATP 20 µM
CSNK1D (human) = CSNK1D (human) (UniProt P48730); settings: compound 10.0 µM; ATP 20 µM
[2] = test system: RPS6KB1 (human), P23443 [T412E]; settings: ATP 20 µM
Sequence of RPS6KB1 (human), P23443 [T412E] (P23443 whole entry T412E, looked up): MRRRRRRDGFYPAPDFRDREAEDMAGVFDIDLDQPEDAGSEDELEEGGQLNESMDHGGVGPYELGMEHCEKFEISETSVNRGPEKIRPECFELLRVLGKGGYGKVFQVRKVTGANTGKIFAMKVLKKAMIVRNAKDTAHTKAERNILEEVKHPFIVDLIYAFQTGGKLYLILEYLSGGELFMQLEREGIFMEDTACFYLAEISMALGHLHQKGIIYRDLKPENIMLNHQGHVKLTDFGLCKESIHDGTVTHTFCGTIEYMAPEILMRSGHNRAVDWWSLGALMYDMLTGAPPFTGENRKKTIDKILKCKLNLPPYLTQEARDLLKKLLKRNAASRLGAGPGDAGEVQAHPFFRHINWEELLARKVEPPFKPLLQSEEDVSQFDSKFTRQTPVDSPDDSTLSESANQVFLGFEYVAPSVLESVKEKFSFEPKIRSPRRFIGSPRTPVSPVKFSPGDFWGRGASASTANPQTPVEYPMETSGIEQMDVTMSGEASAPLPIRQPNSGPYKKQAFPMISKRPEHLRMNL

STK3 (human) = STK3 (human) (UniProt Q13188); settings: compound 10.0 µM; ATP 20 µM
AKT1 (human) = AKT1 (human) (UniProt P31749); settings: ATP 5 µM
IKBKB (human) = IKBKB (human) (UniProt O14920); settings: compound 10.0 µM; ATP 5 µM
RPS6KA3 KD1 KD2 (human) = RPS6KA3 KD1 KD2 (human) (UniProt P51812); settings: ATP 50 µM
[3] = test system: SGK1 (human), O00141 [S422D]; settings: compound 10.0 µM; ATP 20 µM
PAK6 (human) = PAK6 (human) (UniProt Q9NQU5); settings: ATP 20 µM
DYRK2 (human) = DYRK2 (human) (UniProt Q92630); settings: ATP 50 µM
Sequence of DYRK2 (human) (Q92630 whole entry, looked up): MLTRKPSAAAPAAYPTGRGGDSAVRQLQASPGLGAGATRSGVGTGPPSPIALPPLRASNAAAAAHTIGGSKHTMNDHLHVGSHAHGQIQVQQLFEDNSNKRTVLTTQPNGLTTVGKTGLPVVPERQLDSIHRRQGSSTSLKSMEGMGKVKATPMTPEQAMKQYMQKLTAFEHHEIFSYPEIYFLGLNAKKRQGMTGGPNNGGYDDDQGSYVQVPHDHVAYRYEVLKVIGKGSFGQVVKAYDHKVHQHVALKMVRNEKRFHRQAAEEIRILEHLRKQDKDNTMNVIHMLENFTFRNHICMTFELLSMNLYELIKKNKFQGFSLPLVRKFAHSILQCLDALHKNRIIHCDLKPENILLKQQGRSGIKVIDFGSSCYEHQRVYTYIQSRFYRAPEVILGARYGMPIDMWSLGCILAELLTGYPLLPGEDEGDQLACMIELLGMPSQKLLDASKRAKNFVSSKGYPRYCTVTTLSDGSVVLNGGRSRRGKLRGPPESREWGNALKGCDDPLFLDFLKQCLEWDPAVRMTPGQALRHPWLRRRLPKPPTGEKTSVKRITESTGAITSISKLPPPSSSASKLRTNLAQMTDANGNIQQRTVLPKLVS

EEF2K (human) = EEF2K (human) (UniProt O00418); settings: ATP 5 µM
Sequence of EEF2K (human) (O00418 whole entry, looked up): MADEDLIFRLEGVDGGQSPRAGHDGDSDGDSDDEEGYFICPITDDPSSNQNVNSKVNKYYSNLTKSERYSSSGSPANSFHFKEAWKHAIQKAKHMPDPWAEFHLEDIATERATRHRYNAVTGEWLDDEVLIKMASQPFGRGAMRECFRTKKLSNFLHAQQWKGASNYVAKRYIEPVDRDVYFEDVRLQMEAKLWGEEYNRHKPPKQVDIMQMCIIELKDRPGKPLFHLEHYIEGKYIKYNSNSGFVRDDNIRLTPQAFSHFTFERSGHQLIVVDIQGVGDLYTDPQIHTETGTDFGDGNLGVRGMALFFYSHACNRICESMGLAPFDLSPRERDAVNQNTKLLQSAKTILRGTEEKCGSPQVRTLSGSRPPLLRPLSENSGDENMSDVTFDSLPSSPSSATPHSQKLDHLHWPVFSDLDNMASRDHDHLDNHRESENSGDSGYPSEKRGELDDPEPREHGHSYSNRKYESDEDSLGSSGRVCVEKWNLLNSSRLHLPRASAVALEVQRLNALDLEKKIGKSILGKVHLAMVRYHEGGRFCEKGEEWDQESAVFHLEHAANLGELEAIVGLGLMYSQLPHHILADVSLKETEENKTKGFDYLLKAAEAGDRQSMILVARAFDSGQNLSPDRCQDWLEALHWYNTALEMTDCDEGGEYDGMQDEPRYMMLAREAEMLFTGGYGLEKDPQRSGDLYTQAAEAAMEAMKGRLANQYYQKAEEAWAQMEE

MAPKAPK3 (human) = MAPKAPK3 (human) (UniProt Q16644); settings: ATP 20 µM
Sequence of MAPKAPK3 (human) (Q16644 whole entry, looked up): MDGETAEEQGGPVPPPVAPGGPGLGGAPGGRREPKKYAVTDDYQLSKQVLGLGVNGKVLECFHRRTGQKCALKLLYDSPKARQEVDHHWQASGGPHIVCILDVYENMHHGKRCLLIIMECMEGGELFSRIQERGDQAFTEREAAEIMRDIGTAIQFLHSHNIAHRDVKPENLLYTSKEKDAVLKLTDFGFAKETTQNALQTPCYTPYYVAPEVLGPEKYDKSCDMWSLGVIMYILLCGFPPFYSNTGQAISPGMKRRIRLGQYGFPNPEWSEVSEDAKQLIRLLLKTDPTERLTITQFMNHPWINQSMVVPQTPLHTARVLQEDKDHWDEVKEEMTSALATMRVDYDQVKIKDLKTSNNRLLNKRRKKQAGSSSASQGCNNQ

CSK (human) = CSK (human) (UniProt P41240); settings: compound 1.0 µM; ATP 20 µM
CHEK2 (human) = CHEK2 (human) (UniProt O96017); settings: compound 10.0 µM; ATP 20 µM
NEK6 (human) = NEK6 (human) (UniProt Q9HC98); settings: compound 10.0 µM; ATP 50 µM
TBK1 (human) = TBK1 (human) (UniProt Q9UHD2); settings: compound 1.0 µM; ATP 50 µM
CAMKK1 (human) = CAMKK1 (human) (UniProt Q8N5S9); settings: ATP 20 µM

Sequence of IKBKE (human) (Q14164 whole entry, looked up): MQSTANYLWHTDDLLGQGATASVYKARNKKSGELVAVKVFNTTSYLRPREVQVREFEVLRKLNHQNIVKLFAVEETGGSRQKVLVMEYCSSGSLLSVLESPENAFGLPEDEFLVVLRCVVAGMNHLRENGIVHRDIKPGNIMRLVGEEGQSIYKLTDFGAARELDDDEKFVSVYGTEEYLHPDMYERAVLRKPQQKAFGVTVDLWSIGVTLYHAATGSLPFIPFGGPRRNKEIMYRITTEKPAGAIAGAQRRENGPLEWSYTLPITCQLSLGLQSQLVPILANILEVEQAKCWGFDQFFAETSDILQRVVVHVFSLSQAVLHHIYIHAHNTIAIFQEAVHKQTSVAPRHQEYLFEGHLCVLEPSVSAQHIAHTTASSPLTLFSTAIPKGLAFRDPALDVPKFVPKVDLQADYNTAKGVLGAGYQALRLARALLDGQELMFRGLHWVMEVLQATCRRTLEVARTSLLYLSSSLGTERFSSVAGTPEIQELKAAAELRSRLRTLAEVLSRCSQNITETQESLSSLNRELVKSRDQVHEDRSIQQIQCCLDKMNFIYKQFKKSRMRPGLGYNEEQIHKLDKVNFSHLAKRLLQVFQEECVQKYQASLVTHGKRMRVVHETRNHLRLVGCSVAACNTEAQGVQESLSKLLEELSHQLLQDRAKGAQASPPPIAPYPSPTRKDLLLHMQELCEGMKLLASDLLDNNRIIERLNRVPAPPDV
Sequence of MAPKAPK5 (human) (Q8IW41 whole entry, looked up): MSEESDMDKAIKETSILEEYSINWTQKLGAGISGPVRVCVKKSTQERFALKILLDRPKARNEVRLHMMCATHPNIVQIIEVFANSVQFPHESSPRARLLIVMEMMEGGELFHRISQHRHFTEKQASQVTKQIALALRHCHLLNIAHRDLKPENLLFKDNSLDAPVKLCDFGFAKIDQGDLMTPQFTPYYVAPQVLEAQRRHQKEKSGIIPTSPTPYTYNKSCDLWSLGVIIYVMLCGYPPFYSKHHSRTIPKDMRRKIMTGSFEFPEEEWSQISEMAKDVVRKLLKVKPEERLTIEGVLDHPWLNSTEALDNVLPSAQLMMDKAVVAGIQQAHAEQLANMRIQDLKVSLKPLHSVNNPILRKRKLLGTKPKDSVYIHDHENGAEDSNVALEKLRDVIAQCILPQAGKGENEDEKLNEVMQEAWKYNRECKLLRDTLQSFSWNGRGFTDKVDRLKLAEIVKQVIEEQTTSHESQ

Q: Which residual activity (NEK2 (human); compound 1.0 µM) does the source give for `CC(C)(N)c1ccc(-c2nc3ccccc3nc2-c2ccccc2)cc1` here?
A: 91%

Q: What about the residual activity (NEK2 (human); compound 10.0 µM) of the same molecule?
A: 100%

Q: What about the residual activity (MAPKAPK5 (human); compound 1.0 µM) of the same molecule?
A: 85%

Q: And the residual activity (MAPKAPK5 (human); compound 10.0 µM)?
A: 79%

Q: What about the residual activity (MAP2K1 (human)) of the same molecule?
A: 91%

Q: What about the residual activity (IKBKE (human); compound 1.0 µM) of the same molecule?
A: 87%

Q: And the residual activity (IKBKE (human); compound 10.0 µM)?
A: 67%

Q: And the residual activity ([1]; compound 1.0 µM)?
A: 91%

Q: What about the residual activity ([1]; compound 10.0 µM) of the same molecule?
A: 77%

Q: What about the residual activity (MAPKAPK2 (human); compound 1.0 µM) of the same molecule?
A: 84%

Q: And the residual activity (MAPKAPK2 (human); compound 10.0 µM)?
A: 60%

Q: And the residual activity (MAPK9 (human))?
A: 105%

Q: What about the residual activity (PIM3 (human)) of the same molecule?
A: 60%

Q: And the residual activity (AURKB (human); compound 1.0 µM)?
A: 82%

Q: What about the residual activity (AURKB (human); compound 10.0 µM) of the same molecule?
A: 60%

Q: What about the residual activity (PLK1 (human); compound 1.0 µM) of the same molecule?
A: 79%

Q: And the residual activity (PLK1 (human); compound 10.0 µM)?
A: 90%

Q: And the residual activity (CaMK1 (human); compound 1.0 µM)?
A: 43%

Q: What about the residual activity (CaMK1 (human); compound 10.0 µM) of the same molecule?
A: 3%

Q: And the residual activity (PAK4 (human); compound 1.0 µM)?
A: 92%

Q: And the residual activity (PAK4 (human); compound 10.0 µM)?
A: 49%

Q: And the residual activity (RPS6KA5 KD1 KD2 (human))?
A: 81%

Q: And the residual activity (CSNK1D (human))?
A: 111%

Q: And the residual activity ([2]; compound 1.0 µM)?
A: 100%

Q: What about the residual activity ([2]; compound 10.0 µM) of the same molecule?
A: 72%

Q: And the residual activity (STK3 (human))?
A: 78%

Q: And the residual activity (AKT1 (human); compound 1.0 µM)?
A: 22%

Q: And the residual activity (AKT1 (human); compound 10.0 µM)?
A: 8%

Q: And the residual activity (IKBKB (human))?
A: 90%

Q: And the residual activity (RPS6KA3 KD1 KD2 (human); compound 1.0 µM)?
A: 80%

Q: What about the residual activity (RPS6KA3 KD1 KD2 (human); compound 10.0 µM) of the same molecule?
A: 74%

Q: What about the residual activity [3] of the same molecule?
A: 82%

Q: What about the residual activity (PAK6 (human); compound 1.0 µM) of the same molecule?
A: 116%

Q: And the residual activity (PAK6 (human); compound 10.0 µM)?
A: 92%

Q: And the residual activity (DYRK2 (human); compound 1.0 µM)?
A: 113%

Q: And the residual activity (DYRK2 (human); compound 10.0 µM)?
A: 118%

Q: What about the residual activity (EEF2K (human); compound 1.0 µM) of the same molecule?
A: 93%

Q: And the residual activity (EEF2K (human); compound 10.0 µM)?
A: 40%

Q: And the residual activity (MAPKAPK3 (human); compound 1.0 µM)?
A: 86%

Q: What about the residual activity (MAPKAPK3 (human); compound 10.0 µM) of the same molecule?
A: 71%

Q: What about the residual activity (CSK (human)) of the same molecule?
A: 87%

Q: What about the residual activity (CHEK2 (human)) of the same molecule?
A: 83%

Q: What about the residual activity (NEK6 (human)) of the same molecule?
A: 75%

Q: What about the residual activity (TBK1 (human)) of the same molecule?
A: 101%

Q: What about the residual activity (CAMKK1 (human); compound 1.0 µM) of the same molecule?
A: 93%

Q: What about the residual activity (CAMKK1 (human); compound 10.0 µM) of the same molecule?
A: 62%
